The values below come from patent US20250099448A1, “HETEROCYCLIC COMPOUNDS” (Hoffmann-La Roche Inc., priority 2022, published 2025).

The term pIC50 denotes the IC50 on a negative log10 scale, so that one unit is a factor of ten. Read a high pIC50 as a low IC50.

pIC50: −log10 of the molar value.

The experiment concerns the target T1, MAGL protein (Homo sapiens, UniProt Q99685).
T1 sequence (Q99685 1-303): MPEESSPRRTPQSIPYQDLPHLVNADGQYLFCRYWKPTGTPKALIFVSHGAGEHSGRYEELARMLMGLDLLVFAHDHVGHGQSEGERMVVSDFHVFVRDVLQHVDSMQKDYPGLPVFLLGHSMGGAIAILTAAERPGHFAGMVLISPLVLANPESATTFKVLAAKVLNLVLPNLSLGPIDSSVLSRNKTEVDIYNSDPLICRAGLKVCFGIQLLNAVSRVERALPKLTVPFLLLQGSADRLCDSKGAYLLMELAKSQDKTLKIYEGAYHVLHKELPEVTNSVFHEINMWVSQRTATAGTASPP
The experiment is described as follows: 2-AG assay: MAGL inhibitory activity by hydrolysis of 2-arachidonoylglycerol to arachidonic acid, followed by mass spectrometry. Format: biochemical. The note with it: 8 μM 2-arachidonoylglycerol, 15 min preincubation, 30 min reaction at RT, RapidFire MS readout. Summed up: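 Activity was measured by RapidFire SPE–triple-quad MS as the ratio of arachidonic acid to d8-arachidonic acid after 2-AG hydrolysis (8 μM substrate, 30 min, RT, acetonitrile quench). Compounds, tested from 12.5 μM down to […], were first preincubated 15 min with MAGL in TRIS/EDTA/Tween-20 buffer containing 2.5% DMSO.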

The molecule `O=C(N1CC2(CC(Oc3cncc(C(F)(F)F)c3)C2)C1)N1CC2(CC(c3nc(C4CC4)n[nH]3)C2)C1` [compound 520] showed a pIC50 of 8.65.

`Cc1cn(-c2ccc(C3CN(C(=O)N4CC5(CC(c6nnc(C7CC7)[nH]6)C5)C4)C3)cc2)cn1` [Example 806, [6-(5-cyclopropyl-4H-1,2,4-triazol-3-yl)-2-azaspiro[3.3]heptan-2-yl]-[3-[4-(4-methylimidazol-1-yl)phenyl]azetidin-1-yl]methanone] showed a pIC50 of 8.01.

`O=C(N1CC(OCc2ccc(S(=O)(=O)C(F)(F)F)cc2F)C1)N1CC2(CC(c3nc(C4(F)CC4)n[nH]3)C2)C1` [compound 470] had a pIC50 of 8.29.

`N=S(=O)(c1ccc(CC2CC3(C2)CN(C(=O)N2CC4(CC(c5nc(C6CC6)n[nH]5)C4)C2)C3)nc1)C(F)(F)F` (centres unmarked) [compound 739] had a negative-log IC50 (pIC50) of 8.90.

For `O=C(N1CC(N(Cc2ccc(C(F)(F)F)cc2F)CC2CC2)C1)N1CC2(CC(c3nnc(C4CC4)[nH]3)C2)C1` [compound 201], the pIC50 is 7.77.

In turn, `Cc1cc(C)n(-c2ccc(C3CN(C(=O)N4CC5(CC(c6nnc(C7CC7)[nH]6)C5)C4)C3)cc2)n1` [compound 294] showed a pIC50 of 9.25.

In turn, `N#Cc1cc(CC2CC3(C2)CN(C(=O)N2CC4(CC(c5nnc(C6(O)CC6)[nH]5)C4)C2)C3)ccc1C(F)(F)F` [compound 27] had a pIC50 of 9.96.

`O=C(N1CC2(CC(Cc3cccc(S(=O)(=O)C(F)(F)F)c3)C2)C1)N1CC2(CC(c3nc(C4COC4)n[nH]3)C2)C1` [compound 728] had a pIC50 of 8.38.

On to `O=C(N1CC2(CCN(Cc3cc(C(F)(F)F)no3)CC2)C1)N1CC2(CC(c3nc(C4CC4)n[nH]3)C2)C1` [Example 955, [6-(3-cyclopropyl-1H-1,2,4-triazol-5-yl)-2-azaspiro[3.3]heptan-2-yl]-[7-[[3-(trifluoromethyl)isoxazol-5-yl]methyl]-2,7-diazaspiro[3.5]nonan-2-yl]methanone], for which the pIC50 is 7.64.

`CS(=O)(=O)c1ccc(C2CC3(C2)CN(C(=O)N2CC4(CC(c5nnc(C6CC6)[nH]5)C4)C2)C3)cc1` [compound 939] had a pIC50 of 8.47.

In turn, `O=C(N1CC(CCc2ccc(C(F)(F)F)cc2F)C1)N1CC2(CC(c3nc(C4(O)CC4)n[nH]3)C2)C1` [compound 349] gave a pIC50 of 8.61.

`O=C(N1CC2(CC(c3nc(C4CC(F)(F)C4)n[nH]3)C2)C1)N1CC2(CN(Cc3sncc3C(F)(F)F)C2)C1` [compound 655]: the pIC50 is 6.25.

Regarding `CP(C)(=O)c1cc(CC2CC3(C2)CN(C(=O)N2CC4(CC(c5nnc(C6CC6)[nH]5)C4)C2)C3)cc(C(F)(F)F)c1` [compound 884], the pIC50 is 8.83. Against the preceding molecule, the pIC50 is 2.58 log units higher.

Molecule `N=S(=O)(c1ccc(COC2CN(C(=O)N3CC4(CC(c5nc(C6(O)CC6)n[nH]5)C4)C3)C2)c(F)c1)C(F)(F)F` (centres unmarked) [Example 576, [3-[2-fluoro-4-(trifluoromethylsulfonimidoyl)benzyl]oxyazetidin-1-yl]-[6-[3-(1-hydroxycyclopropyl)-1H-1,2,4-triazol-5-yl]-2-azaspiro[3.3]heptan-2-yl]methanone] had a pIC50 of 7.07.

`O=C(N1CCC(COc2cc(F)cc(C(F)(F)F)c2)CC1)N1CC2(CC(c3nc(C4(O)CC4)n[nH]3)C2)C1` [Example 921, [4-[[3-fluoro-5-(trifluoromethyl)phenoxy]methyl]piperidino]-[6-[3-(1-hydroxycyclopropyl)-1H-1,2,4-triazol-5-yl]-2-azaspiro[3.3]heptan-2-yl]methanone] showed a pIC50 of 7.50.

In the case of `N=S(=O)(c1ccc(CC2CC3(C2)CN(C(=O)N2CC4(CC(c5nc(C6CC6)n[nH]5)C4)C2)C3)c(F)c1)C(F)(F)F` (centres unmarked) [compound 849], the pIC50 was 10.15. This pIC50 lies 2.65 log units higher than the previous one.

As for `N#Cc1cc(Cl)cnc1OCC1CCN(C(=O)N2CC3(CC(c4nc(C5CC5)n[nH]4)C3)C2)CC1` [Example 908], the pIC50 was 7.25.

In turn, `Cn1ncc(CC2CC3(C2)CN(C(=O)N2CC4(CC(c5nc(C6(O)CC6)n[nH]5)C4)C2)C3)c1C(F)(F)F` [compound 815] showed a pIC50 of 9.22. Against the preceding molecule, the pIC50 is 1.97 log units higher.

The molecule `O=C(N1CC(NS(=O)(=O)c2ccc(C(F)(F)F)cc2F)C1)N1CC2(CC(c3nnc(C4CC4)[nH]3)C2)C1` [compound 203] showed a pIC50 of 6.44.

Take `O=C(N1CC2(CC(Cc3ncc(C(F)(F)F)cn3)C2)C1)N1CC2(CC(c3nnc(C4CC4)[nH]3)C2)C1` [compound 28]: the pIC50 was 9.03.

`O=C(N1CC(c2ccc(S(=O)(=O)c3ccccc3)cc2)C1)N1CC2(CC(c3nnc(C4CC4)[nH]3)C2)C1` [compound 371] showed a pIC50 of 9.40.

On to `CCOc1cc(C)nn1-c1ccc(C2CN(C(=O)N3CC4(CC(c5nnc(C6CC6)[nH]5)C4)C3)C2)cc1` [Example 449, [6-(5-cyclopropyl-4H-1,2,4-triazol-3-yl)-2-azaspiro[3.3]heptan-2-yl]-[3-[4-(5-ethoxy-3-methyl-pyrazol-1-yl)phenyl]azetidin-1-yl]methanone], for which the pIC50 was 9.35.

Consider `N#Cc1cc(CC2CC3(C2)CN(C(=O)N2CC4(CC(c5nnc(C6(O)CC6)[nH]5)C4)C2)C3)cnc1C(F)(F)F` [compound 606], for which the pIC50 was 8.29. This pIC50 lies 1.06 log units lower than the previous one.

Take `O=C(N1CC2(CC(OCC3(C(F)(F)F)CC3)C2)C1)N1CC2(CC(c3nnc(C4CC4)[nH]3)C2)C1` [compound 68]: the negative-log IC50 (pIC50) was 8.27.

On to `O=C(N1CC2(CC(Cc3ncn(CC(F)(F)F)n3)C2)C1)N1CC2(CC(c3nc(C4CC4)n[nH]3)C2)C1` [compound 962], for which the pIC50 is 8.36.

The molecule `Cn1cnc(C#N)c1CN1CC2(C1)CN(C(=O)N1CC3(CC(c4nc(C5CC5)n[nH]4)C3)C1)C2` [compound 537] had a pIC50 of 6.62. Against the preceding molecule, the pIC50 is 1.74 log units lower.

`O=C(N1CC2(CC(Cc3cccc(S(=O)(=O)C(F)(F)F)c3)C2)C1)N1CC2(CC(c3nc(C4CC(F)(F)C4)n[nH]3)C2)C1` [compound 604] gave a pIC50 of 8.16.

On to `O=C(N1CC2(CC(Cn3cnc(C(F)(F)F)c3)C2)C1)N1CC2(CC(c3nnc(C4(O)CC4)[nH]3)C2)C1` [compound 64], for which the pIC50 was 7.42.

In turn, `O=C(N1CC2(CC(Cc3cc(C(F)(F)F)ncn3)C2)C1)N1CC2(CC(c3nc(C4CC4)n[nH]3)C2)C1` [compound 400] gave a pIC50 of 8.93.

Regarding `O=C(N1CC(c2nc(CC3(C(F)(F)F)CC3)no2)C1)N1CC2(CC(c3nnc(C4CC4)[nH]3)C2)C1` [compound 245], the pIC50 is 7.30.

In turn, `O=C(N1CC(NS(=O)(=O)c2cccc(OC(F)(F)F)c2)C1)N1CC2(CC(c3nnc(C4CC4)[nH]3)C2)C1` [compound 205] had a negative-log IC50 (pIC50) of 6.81.

Molecule `CS(=O)(=O)C1(c2ccc(C3CN(C(=O)N4CC5(CC(c6nc(C7CC7)n[nH]6)C5)C4)C3)cc2)CC1` [compound 776] gave a pIC50 of 8.23.

`CS(=O)(=O)c1cnn(-c2ccc(C3CN(C(=O)N4CC5(CC(c6nnc(C7CC7)[nH]6)C5)C4)C3)cc2)c1` [Example 500, [6-(5-cyclopropyl-4H-1,2,4-triazol-3-yl)-2-azaspiro[3.3]heptan-2-yl]-[3-[4-(4-mesylpyrazol-1-yl)phenyl]azetidin-1-yl]methanone] had a pIC50 of 8.02.

`O=C(N1CC(OCC2CCC(F)(F)CC2)C1)N1CC2(CC(c3nnc(C4CC4)[nH]3)C2)C1` [compound 326] had a pIC50 of 7.64.

`O=C(N1CC(C23CC(c4cccc(OC(F)(F)F)c4)(C2)C3)C1)N1CC2(CC(c3nc(C4CC4)n[nH]3)C2)C1` [compound 459] gave a pIC50 of 10.70.

`O=C(N1CC2(CC(c3nc(C4CC4)n[nH]3)C2)C1)N1CC2(CCN(Cc3ccc(C(F)(F)F)nc3)C2)C1` [compound 804]: the pIC50 is 8.15.

In the case of `O=C(N1CC2(CC(c3nnc(C4CC4)[nH]3)C2)C1)N1CC2(C1)CN(S(=O)(=O)c1cncc(C(F)(F)F)c1)C2` [compound 109], the pIC50 is 7.70. This pIC50 is 0.45 log units lower than that of the molecule before.

In turn, `CS(=O)(=O)c1ccc(-c2ccc(C3CN(C(=O)N4CC5(CC(c6ncn[nH]6)C5)C4)C3)cc2)c(Cl)c1` [compound 981] gave a pIC50 of 5.75.

With `O=C(N1CC2(CC(Cn3nccc3C(F)(F)F)C2)C1)N1CC2(CC(c3nc(C4(O)CC4)n[nH]3)C2)C1` [compound 796], the pIC50 was 8.93.

`O=C(N1CC2(CC(Cc3n[nH]cc3C(F)(F)F)C2)C1)N1CC2(CC(c3nc(C4CC4)n[nH]3)C2)C1` [compound 747] had a pIC50 of 10.05.

`O=C(N1CC2(CC(CNC3(C(F)(F)F)CC3)C2)C1)N1CC2(CC(c3nnc(C4(O)CC4)[nH]3)C2)C1` [compound 55]: the pIC50 was 7.66.

Molecule `O=C(N1CC2(CC(Cc3ccc(C(F)(F)F)nn3)C2)C1)N1CC2(CC(c3nc(C4(F)CC4)n[nH]3)C2)C1` [compound 460] showed a pIC50 of 8.58. Against the preceding molecule, the pIC50 is 0.92 log units higher.

`O=C(N1CC2(CC(Cc3nc(C(F)(F)F)ns3)C2)C1)N1CC2(CC(c3nnc(C4(O)CC4)[nH]3)C2)C1` [compound 60] had a negative logarithm of the IC50 (pIC50) of 8.39. This pIC50 and that of the molecule before are within 0.2 log units of each other.

In turn, `O=C(N1CC2(CC(c3nc(C4CC4)n[nH]3)C2)C1)N1CC2(CN(Cc3ncc(C(F)F)s3)C2)C1` [compound 624] had a pIC50 of 8.09.

For `O=C(N1CC2(CC(c3nc(C4(F)CC4)n[nH]3)C2)C1)N1CC2(CN(Cc3ncc(C(F)(F)F)s3)C2)C1` [compound 598], the pIC50 was 8.72.

`Cc1nn(C)c(Cl)c1CN1CCN(C(=O)N2CC3(CC(c4nc(C5CC5)n[nH]4)C3)C2)CC1` [Example 881, [4-[(5-chloro-1,3-dimethyl-pyrazol-4-yl)methyl]piperazino]-[6-(3-cyclopropyl-1H-1,2,4-triazol-5-yl)-2-azaspiro[3.3]heptan-2-yl]methanone] gave a pIC50 of 6.17.

Consider `Cc1nc(C(F)F)nn1-c1ccc(C2CN(C(=O)N3CC4(CC(c5nnc(C6CC6)[nH]5)C4)C3)C2)cc1` [compound 534], for which the pIC50 was 8.27.
